Source: US20100137315A1, “Sphingosine Kinase Inhibitors and Methods of Their Use” (APOGEE BIOTECHNOLOGY CORPORATION, priority 2005, published 2010)

Biological target: T1, recombinant human SK (Homo sapiens, UniProt Q9NYA1)
T1 construct: glutathione-S-transferase (GST) (N); made in house; host or cells: bacteria (pGEX vector)
Experiment: Inhibition of recombinant human SK, LC/MS/MS assay
Type: biochemical
Settings: 6 μg/ml compound
Protocol: An assay for identifying inhibitors of recombinant human SK has been established (French et al., 2003, Cancer Res 63: 5962). cDNA for human SK was subcloned into a pGEX bacterial expression vector, which results in expression of the enzyme as a fusion protein with glutathione-S-transferase, and the fusion protein is then purified on a column of immobilized glutathione. SK activity is measured by incubation of the recombinant SK with [^3H]sphingosine and 1 mM ATP under defined conditions, followed by extraction of the assay mixture with chloroform:methanol under basic conditions. […] Radioactivity in aliquots of the aqueous phase is then quantified as a measure of [^3H]S1P formation. There is a low background level of partitioning of [^3H]sphingosine into the aqueous phase, and addition of the recombinant SK greatly increases the formation of [^3H]S1P.
In an alternate assay procedure, the recombinant human SK was incubated with unlabeled sphingosine and ATP as described above. After 30 minutes, the reactions were terminated by the addition of acetonitrile to directly extract the newly synthesized S1P. The amount of S1P in the samples is then quantified as follows. C17 base D-erythro-sphingosine and C17 S1P are used as internal standards for sphingosine and S1P, respectively. These seventeen-carbon fatty acid-linked sphingolipids are not naturally produced, making these analogs excellent standards. The lipids are then fractionation by High-Performance Liquid Chromatography using a C8-reverse phase column eluted with 1 mM methanolic ammonium formate/2 mM aqueous ammonium formate. A Finnigan LCQ Classic LC-MS/MS is used in the multiple reaction monitoring positive ionization mode to acquire ions at m/z of 300 (precursor ion)→282 (product ion) for sphingosine and 380→264 for S1P. Calibration curves are generated by plotting the peak area ratios of the synthetic standards for each sphingolipid, and used to determine the normalized amounts of sphingosine and S1P in the samples.
Each Compound of this invention was tested for its ability to inhibit recombinant SK using the LC/MS/MS assay described above. Typically, the Compounds were individually dissolved in dimethylsulfoxide and tested at a final concentration of 6 micrograms/ml.

T1 sequence (Q9NYA1 whole entry): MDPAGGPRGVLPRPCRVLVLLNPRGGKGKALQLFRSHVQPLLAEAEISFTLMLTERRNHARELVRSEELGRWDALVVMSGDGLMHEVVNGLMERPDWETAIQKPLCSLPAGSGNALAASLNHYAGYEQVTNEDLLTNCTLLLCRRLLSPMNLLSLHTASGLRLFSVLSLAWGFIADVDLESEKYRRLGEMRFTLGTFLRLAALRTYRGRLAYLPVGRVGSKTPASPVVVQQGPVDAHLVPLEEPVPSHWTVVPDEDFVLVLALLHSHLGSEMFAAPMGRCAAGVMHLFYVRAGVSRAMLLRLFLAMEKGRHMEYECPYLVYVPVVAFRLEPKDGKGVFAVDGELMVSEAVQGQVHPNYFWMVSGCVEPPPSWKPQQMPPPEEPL

| SMILES | inhibition at 6 µg/mL [%] |
| --- | --- |
| CS(=O)(=O)c1ccc(CNC(=O)c2nc(-c3ccc(Cl)cc3)cs2)cc1 [Compound 63, 4-(4-Chloro-phenyl)-thiazole-2-carboxylic Acid 4-methanesulfonyl-benzylamide] | 3 |
| CCCC(=O)Oc1ccc(CCC(=O)Nc2nc(-c3ccc(Cl)cc3)cs2)cc1OC(=O)CCC [Compound 26, Butyric acid 2-butyryloxy-4-{2-[4-(4-chloro-phenyl)-thiazol-2-ylcarbamoyl]-ethyl}-phenyl ester] | 0 |
| O=C(Nc1nc(-c2ccc(Cl)cc2)cs1)c1ccc(C(F)(F)F)cc1F [Compound 66, N-[4-(4-Chloro-phenyl)-thiazol-2-yl]-2-fluoro-4-trifluoromethyl-benzamide] | 61 |
| O=C(NCc1ccc(C(F)(F)F)cc1F)c1nc(-c2ccc(Cl)cc2)cs1 [Compound 49, 4-(4-Chloro-phenyl)-thiazole-2-carboxylic Acid 2-fluoro-4-trifluoromethyl-benzylamide] | 67 |
| O=C(NCc1cccc(OC(F)(F)F)c1)c1nc(-c2ccc(Cl)cc2)cs1 [Compound 43, 4-(4-Chloro-phenyl)-thiazole-2-carboxylic acid 3-trifluoromethoxy-benzylamide] | 59 |
| O=C(NCCN1CCOCC1)c1nc(-c2ccc(Cl)cc2)cs1 [Compound 76, 4-(4-Chloro-phenyl)-thiazole-2-carboxylic acid (2-morpholin-4-yl-ethyl)-amide] | 51 |
| CCCC(=O)Oc1ccc(C(=O)Nc2nc(-c3ccc(Cl)cc3)cs2)cc1OC [Compound 24, Butyric acid 4-[4-(4-chloro-phenyl)-thiazol-2-ylcarbamoyl]-2-methoxy-phenyl ester] | 0 |
| COc1ccc(CCC(=O)Nc2nc(-c3ccc(Cl)cc3)cs2)cc1OC [Compound 23, N-[4-(4-Chloro-phenyl)-thiazol-2-yl]-3-(3,4-dimethoxy-phenyl)-propionamide] | 45 |
| Fc1cc(F)cc(OCNc2nc(-c3ccc(Cl)cc3)cs2)c1 [Compound 77, [4-(4-Chloro-phenyl)-thiazol-2-yl]-(3,5-difluoro-phenoxymethyl)-amine] | 85 |
| O=C(NCc1ccc(F)c(F)c1)c1nc(-c2ccc(Cl)cc2)cs1 [Compound 40, 4-(4-Chloro-phenyl)-thiazole-2-carboxylic acid 3,4-difluoro-benzylamide] | 56 |
| O=C(Nc1nnn[nH]1)c1nc(-c2ccc(Cl)cc2)cs1 [Compound 62, 4-(4-Chloro-phenyl)-thiazole-2-carboxylic Acid (1H-tetrazol-5-yl)-amide] | 60 |
| CCCC(=O)Oc1ccc(C=CC(=O)Nc2nc(-c3ccc(F)cc3)cs2)cc1OC [Compound 28, Butyric acid 4-{2-[4-(4-fluoro-phenyl)-thiazol-2-ylcarbamoyl]-vinyl}-2-methoxy-phenyl ester] | 87 |
| O=C(NCCCN1CCCC1)c1nc(-c2ccc(Cl)cc2)cs1 [Compound 59, 4-(4-Chloro-phenyl)-thiazole-2-carboxylic Acid (3-pyrrolidin-1-yl-propyl)-amide] | 46 |
| CCSCCNC(=O)c1nc(-c2ccc(Cl)cc2)cs1 [Compound 48, 4-(4-Chloro-phenyl)-thiazole-2-carboxylic Acid (2-ethylsulfanyl-ethyl)-amide] | 56 |
| Fc1ccc(F)c(OCNc2nc(-c3ccc(Cl)cc3)cs2)c1 [Compound 78, [4-(4-Chloro-phenyl)-thiazol-2-yl]-(2,5-difluoro-phenoxymethyl)-amine] | 70 |
| O=C(NCc1ccc(C(F)(F)F)cc1)c1nc(-c2ccc(Cl)cc2)cs1 [Compound 58, 4-(4-Chloro-phenyl)-thiazole-2-carboxylic Acid 4-trifluoromethyl-benzylamide] | 86 |
| O=C(NCc1ccc(-c2ccccc2)cc1)c1nc(-c2ccc(Cl)cc2)cs1 [Compound 55, 4-(4-Chloro-phenyl)-thiazole-2-carboxylic Acid (biphenyl-4-ylmethyl)-amide] | 20 |
| O=C(NCc1cc(C(F)(F)F)cc(C(F)(F)F)c1)c1nc(-c2ccc(Cl)cc2)cs1 [Compound 60, 4-(4-Chloro-phenyl)-thiazole-2-carboxylic Acid 3,5-bis-trifluoromethyl-benzylamide] | 87 |
| CC(C)(C)NCCCNC(=O)c1nc(-c2ccc(Cl)cc2)cs1 [Compound 57, 4-(4-Chloro-phenyl)-thiazole-2-carboxylic Acid (3-tert-butylamino-propyl)-amide] | 16 |

| SMILES | inhibition at 6 µg/mL [%] |
| --- | --- |
| CSc1ccc(CNC(=O)c2nc(-c3ccc(Cl)cc3)cs2)cc1 [Compound 51, 4-(4-Chloro-phenyl)-thiazole-2-carboxylic Acid 4-methylsulfanyl-benzylamide] | 36 |
| O=C(NCc1cc(F)cc(C(F)(F)F)c1)c1nc(-c2ccc(Cl)cc2)cs1 [Compound 75, 4-(4-Chloro-phenyl)-thiazole-2-carboxylic acid 3-fluoro-5-trifluoromethyl-benzylamide] | 3 |
| Fc1cc(F)cc(COCNc2nc(-c3ccc(Cl)cc3)cs2)c1 [Compound 79, [4-(4-Chloro-phenyl)-thiazol-2-yl]-(3,5-difluoro-benzyloxymethyl)-amine] | 53 |
| CCCC(=O)Oc1ccc(CC(=O)Nc2nc(-c3ccc(Cl)cc3)cs2)cc1N [Compound 31, Butyric acid 2-amino-4-{[4-(4-chloro-phenyl)-thiazol-2-ylcarbamoyl]-methyl}-phenyl ester] | 58 |
| O=C(NCc1ccc(Cl)c(C(F)(F)F)c1)c1nc(-c2ccc(Cl)cc2)cs1 [Compound 37, 4-(4-Chloro-phenyl)-thiazole-2-carboxylic acid 4-chloro-3-trifluoromethyl-benzylamide] | 23 |
| O=C(Cc1ccc(F)cc1)Nc1nc(-c2ccc(Cl)cc2)cs1 [Compound 70, N-[4-(4-Chloro-phenyl)-thiazol-2-yl]-2-(4-fluoro-phenyl)-acetamide] | 54 |
| O=C(NCCc1ccncc1)c1nc(-c2ccc(Cl)cc2)cs1 [Compound 61, 4-(4-Chloro-phenyl)-thiazole-2-carboxylic Acid (2-pyridin-4-yl-ethyl)-amide] | 0 |
| O=C(NCc1cc(F)cc(F)c1)c1nc(-c2ccc(Cl)cc2)cs1 [Compound 36, 4-(4-Chloro-phenyl)-thiazole-2-carboxylic acid 3,5-difluoro-benzylamide] | 14 |
| O=C(Nc1cc(F)cc(F)c1)c1nc(-c2ccc(Cl)cc2)cs1 [Compound 50, 4-(4-Chloro-phenyl)-thiazole-2-carboxylic Acid (3,5-difluoro-phenyl)-amide] | 21 |
| O=C(NCCc1ccc2c(c1)OCO2)c1nc(-c2ccc(Cl)cc2)cs1 [Compound 64, 4-(4-Chloro-phenyl)-thiazole-2-carboxylic Acid (2-benzo[1,3]dioxol-5-yl-ethyl)-amide] | 90 |
| O=C(NCc1ccc(Oc2ccccc2)cc1)c1nc(-c2ccc(Cl)cc2)cs1 [Compound 54, 4-(4-Chloro-phenyl)-thiazole-2-carboxylic Acid 4-phenoxy-benzylamide] | 25 |
| O=C(Nc1nc(-c2ccc(Cl)cc2)cs1)c1cccc(F)c1 [Compound 65, N-[4-(4-Chloro-phenyl)-thiazol-2-yl]-3-fluoro-benzamide] | 66 |
| O=C(NCc1ccc(F)c(C(F)(F)F)c1)c1nc(-c2ccc(Cl)cc2)cs1 [Compound 53, 4-(4-Chloro-phenyl)-thiazole-2-carboxylic Acid 4-fluoro-3-trifluoromethyl-benzylamide] | 44 |
| COc1ccc(CCNC(=O)c2nc(-c3ccc(Cl)cc3)cs2)cc1Br [Compound 41, 4-(4-Chloro-phenyl)-thiazole-2-carboxylic acid [2-(3-bromo-4-methoxy-phenyl)-ethyl]-amide] | 22 |
| CC(NC(=O)c1nc(-c2ccc(Cl)cc2)cs1)c1ccc(Cl)cc1 (stereo not shown) [Compound 56, 4-(4-Chloro-phenyl)-thiazole-2-carboxylic Acid [1-(4-chloro-phenyl)-ethyl]-amide] | 81 |
| O=C(C=Cc1ccc2c(c1)OCO2)Nc1nc(-c2ccc(Cl)cc2)cs1 [Compound 21, 3-Benzo[1,3]dioxol-5-yl-N-[4-(4-chloro-phenyl)-thiazol-2-yl]-acrylamide] | 26 |
| O=C(Cc1ccc2c(c1)OCO2)Nc1nc(-c2ccc(Cl)cc2)cs1 [Compound 22, 2-Benzo[1,3]dioxol-5-yl-N-[4-(4-chloro-phenyl)-thiazol-2-yl]-acetamide] | 34 |
| O=C(Nc1nc(-c2ccc(Cl)cc2)cs1)c1ccc(Cl)cc1Cl [Compound 68, 2,4-Dichloro-N-[4-(4-chloro-phenyl)-thiazol-2-yl]-benzamide] | 73 |
